According to BindingDB's records for doi:10.1002/prot.21207 (The Procter & Gamble Pharmaceuticals, 2007):

Target: T1, Methionine aminopeptidase (Escherichia coli (strain K12), UniProt P0AE18)
T1 sequence (P0AE18 whole entry): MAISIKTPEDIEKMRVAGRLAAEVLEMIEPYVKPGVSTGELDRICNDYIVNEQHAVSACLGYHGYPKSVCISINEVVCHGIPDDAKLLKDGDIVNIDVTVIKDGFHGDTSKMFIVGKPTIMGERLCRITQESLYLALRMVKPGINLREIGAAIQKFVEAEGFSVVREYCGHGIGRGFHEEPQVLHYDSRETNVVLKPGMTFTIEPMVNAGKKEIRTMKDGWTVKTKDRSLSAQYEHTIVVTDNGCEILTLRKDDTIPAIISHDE
Assay: EcMAP Enzyme Inhibition Assay
Settings: pH 7.5; 30 °C
Method: The inhibitory activity of a compound toward EcMAP was measured by incubating the compound at various concentrations in the presence of the enzyme and the peptide substrate MGMM. Activity can be determined based on the amount of GMM produced or the amount of MGMM consumed. The integrated area of the tripeptide or tetrapeptide peak was compared to a calibration curve generated by running HPLC chromatograms of known concentrations of the polypeptides.

Structure (SMILES)	IC50 [µM]
N=c1nnc(=N)c1=NNc1cccc(C(=O)O)c1O [3-[(E)-2-(5-amino-3-imino-3H-pyrazol-4-yl)diazen-1-yl]-2-hydroxybenzoic acid]	2
COc1ccc(NN=c2c(=N)nnc2=N)cc1 [3-imino-4-[(E)-2-(4-methoxyphenyl)diazen-1-yl]-3H-pyrazol-5-amine]	1.5
Cc1c(Cl)cccc1NN=c1c(=N)nnc1=N [4-[(E)-2-(3-chloro-2-methylphenyl)diazen-1-yl]-3-imino-3H-pyrazol-5-amine]	0.55
N=c1nnc(=N)c1=NNc1cccc(F)c1 [4-[(E)-2-(3-fluorophenyl)diazen-1-yl]-3-imino-3H-pyrazol-5-amine]	0.55
N=c1nnc(=N)c1=NNc1ccc(Cl)cc1 [4-[(E)-2-(4-chlorophenyl)diazen-1-yl]-3-imino-3H-pyrazol-5-amine]	1.25
